Marks after values point to notes of the source that are not given here.
Tests used:
[1] = ABTS radical scavenging activity (in vitro antioxidant capacity assay)
[2] = target: T1, thyroid peroxidase (TPO) (Sus scrofa, UniProt P09933); assay: Thyroid peroxidase inhibitory assay (guaiacol assay, Lineweaver–Burk plot); conditions: for EFC50 (effective concentration inhibiting TPO in 50%) / Ki (TPO) / Vmax (TPO) / Mode of Inhibition (TPO): pure polyphenol solutions; for Mode of Inhibition (TPO): Lineweaver–Burk
T1 sequence (P09933 15-926): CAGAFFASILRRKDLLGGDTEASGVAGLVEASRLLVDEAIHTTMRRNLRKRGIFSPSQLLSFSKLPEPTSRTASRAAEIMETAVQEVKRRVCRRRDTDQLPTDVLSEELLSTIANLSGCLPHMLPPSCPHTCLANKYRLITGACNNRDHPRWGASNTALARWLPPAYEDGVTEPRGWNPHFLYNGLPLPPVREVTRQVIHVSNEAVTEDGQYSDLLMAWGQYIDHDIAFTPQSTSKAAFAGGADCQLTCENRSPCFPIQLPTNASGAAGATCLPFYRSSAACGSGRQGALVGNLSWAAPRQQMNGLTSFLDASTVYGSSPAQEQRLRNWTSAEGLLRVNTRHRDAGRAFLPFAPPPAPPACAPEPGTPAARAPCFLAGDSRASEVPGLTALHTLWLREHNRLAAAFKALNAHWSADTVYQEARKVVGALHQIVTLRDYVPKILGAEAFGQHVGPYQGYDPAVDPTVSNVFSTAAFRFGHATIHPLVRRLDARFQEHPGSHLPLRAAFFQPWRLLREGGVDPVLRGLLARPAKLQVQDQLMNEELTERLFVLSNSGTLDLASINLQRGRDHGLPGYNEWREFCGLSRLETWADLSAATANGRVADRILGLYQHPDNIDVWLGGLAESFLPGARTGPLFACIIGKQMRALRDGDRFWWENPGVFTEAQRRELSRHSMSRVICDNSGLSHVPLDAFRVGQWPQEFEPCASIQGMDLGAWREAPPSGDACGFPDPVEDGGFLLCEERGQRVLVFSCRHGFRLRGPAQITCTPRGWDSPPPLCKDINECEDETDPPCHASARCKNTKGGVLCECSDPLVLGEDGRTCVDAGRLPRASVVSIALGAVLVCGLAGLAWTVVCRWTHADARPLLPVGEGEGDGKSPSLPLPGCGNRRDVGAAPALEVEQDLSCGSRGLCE

[3] = pure polyphenols, values in text

ABTS radical scavenging ability IC50 [1, 3] | EFC50 (effective concentration inhibiting TPO in 50%) [2] | Ki (TPO) [2] | Vmax (TPO) [2] | Mode of Inhibition (TPO) [2] | ABTS radical scavenging ability IC50 ([1]; pure chemical standards) | IC50 [2] | Ki [2] | SMILES
84.33 µg/mL | 25.42 ± 1.13 ^a µg/mL | 45.92 ± 3.22 ^b µg/mL | 149.25 ± 6.26 ^a ΔAU/min | Competitive | – | – | – | COc1cc(C=CC(=O)O)cc(OC)c1O (stereo in doubt) [Sinapinic acid, sinapinic acid]
405.93 µg/mL | – | – | 149.25 ± 5.12 ^a ΔAU/min | Uncompetitive | 0.406 ± 0.003 ^c mg/mL | 430 µM | 1250 µM | O=c1cc(-c2ccc(O)cc2)oc2cc(O)cc(O)c12 [Apigenin, apigenin]
78.37 µg/mL | 29.76 ± 2.05 ^b µg/mL | 33.42 ± 1.35 ^a µg/mL | 144.93 ± 4.33 ^a ΔAU/min | Competitive | 0.078 ± 0.008 ^a mg/mL | – | – | O.Oc1cc(O)c2c(c1)O[C@H](c1ccc(O)c(O)c1)[C@@H](O)C2 [Catechin, catechin]
– | – | – | 192.31 ± 8.34 ^b ΔAU/min | Competitive | 0.337 ± 0.002 ^b mg/mL | 215 µM | 653 µM | O=c1c(O)c(-c2ccc(O)cc2)oc2cc(O)cc(O)c12 [Kaempferol, kaempferol]

— publication PMC6920844, “Mechanism of Action and Interactions between Thyroid Peroxidase and Lipoxygenase Inhibitors Derived from Plant Sources” (Biomolecules, 2019)
